Values quoted from earlier work in US8188245B2, “Enduracidin biosynthetic gene cluster from streptomyces fungicidicus” (priority 2006, dated 2012).

Tests used:
[1] = system: Gram-positive organisms, including MRSA
[2] = system: S. aureus (100 strains, including 40% MRSA); conditions: 100 strains of S. aureus
[3] = system: vancomycin resistant bacteria

Substance: Enduracidin
- Type of antibacterial effect ([1]; in vitro): bactericidal
- Minimal inhibitory concentrations (MICs) ([1]; wide spectrum of primarily Gram-positive organisms, lowest MICs ("as low as")): ≥ 0.05 µg/mL
- Antibacterial activity ([1]; wide variety of Gram-positive bacteria, including VRE and MRSA): active
- Concentration that no strain was able to survive [2]: 1 µg/mL
- Antibacterial activity [3]: active
- Toxicity or side effects (MRSA; in vivo): No toxicity or side effects were reported
- Efficacy in humans (MRSA; urinary tract and skin infections caused by MRSA): effective
